Measured values from patent US7291295B2, “Method for precipitating finely divided solid particles” (Sociedad Espanola de Carburos Metalicos, S.A., priority 2000, dated 2007).

Assay: Particle size and size distribution of precipitate by Coulter technique using light dispersion
Type: physicochemical
Protocol: FIGS. 8, 10 and 11 show the distribution of size of the particles using the Coulter technique using light dispersion.
The geometrical characteristics of the particles of precipitate (size and distribution of sizes) are measured by the Coulter technique that uses light dispersion with Fourier lenses. Thus, by “particle size” is meant the value of the median of the curve of distribution of particles, in % in volume, and by “distribution of sizes” is meant the value of the standard deviation from the same curve.

Structure (SMILES): C1N2CN3CN1CN(C2)C3 [methenamine]
- average size of particles of precipitate (Example 8, method of the invention, ethanol-CO2, 100 bar, 25° C., molar fraction of CO2 0.7): 8 μm

Structure (SMILES): CCCCCCCCCCCCCCCCCC(=O)O [stearic acid]
- average size of particles of precipitate (Example 7, method of the invention, ethyl acetate-CO2, 100 bar, 25° C., molar fraction of CO2 0.6): 2 μm

Structure (SMILES): CC(=O)Oc1ccccc1C(=O)O [aspirin]
- average size of particles of precipitate (Example 6, method of the invention, acetone-CO2, 70 bar, 25° C., molar fraction of CO2 0.6): 14 μm

Structure (SMILES): CC(=O)Nc1ccc(O)cc1 [acetaminophen]
- average size of particles of precipitate (Example 1, method of the invention, ethanol-CO2, 100 bar, 42° C., 1,750 ml solution): 15 μm
- average size of particles of precipitate (Example 2, GAS process fraction (filter 11), ethanol-CO2, 100 bar, 42° C.): 50 μm
- average size of particles of precipitate (Example 2, method of the invention (filter 13), ethanol-CO2, 100 bar, 42° C., 1,600 ml solution): 15 μm
- average size of particles of precipitate (Example 5, GAS process (filter 11), acetone-CO2, 100 bar, 42° C.): 50 μm

Structure (SMILES): CCCCNc1ccc(NCCCC)c2c1C(=O)c1ccccc1C2=O [solvent blue 35]
- average size of particles of precipitate (Example 3, method of the invention, acetone-CO2, 60 bar, 25° C., 1,400 ml solution (FIG. 8)): 5 μm
- average size of particles of precipitate (Example 4, GAS process fraction (filter 11), acetone-CO2, 60 bar, 25° C. (FIG. 10)): 70 μm
- average size of particles of precipitate (Example 4, method of the invention (filter 13), acetone-CO2, 60 bar, 25° C., 640 ml solution (FIG. 11)): 4 μm
